# Assay results published in paper PMC5940854, “Nitrothiophene carboxamides, a novel narrow spectrum antibacterial series: Mechanism of action and Efficacy” (Scientific Reports, 2018).
# Columns and labels:
# Assay type in all cases: cell-based
# [1] = system: E. coli ∆acrB JW0451-2; assay: MIC, E. coli ∆acrB; set-up: MIC ∆acrB: unit not given beside the values
# Summary of the method: (§1)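 Growth inhibition was read as absorbance at 600 nm after exposing 3–7 × 10^5 CFU/ml cultures in M9 medium to final compound concentrations of 40 µg/mL to 0.3 µg/mL. For killing kinetics, ~10^7 CFU/ml cells were treated over 0 to 8 h and survivors counted.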
# [2] = system: ATCC25922; assay: MIC on E. coli ATCC25922; details: strain ATCC25922
# Summary of the method: as §1
# [3] = system: E. coli ∆tolC JW5503-1; assay: MIC, E. coli ∆tolC; details: Escherichia coli, read-out: MIC tolC
# Summary of the method: as §1
# [4] = system: E. coli clinical isolates; assay: MIC on panel of E. coli clinical isolates
# [5] = target: T1, AcrB efflux pump in E. coli BW25113 (Escherichia coli, UniProt P31224); assay: Nile red efflux assay (whole-cell competition)
# T1 construct: endogenous in cells; host or cells: E. coli BW25113 (wild type)
# T1 sequence (P0AE06 25-397): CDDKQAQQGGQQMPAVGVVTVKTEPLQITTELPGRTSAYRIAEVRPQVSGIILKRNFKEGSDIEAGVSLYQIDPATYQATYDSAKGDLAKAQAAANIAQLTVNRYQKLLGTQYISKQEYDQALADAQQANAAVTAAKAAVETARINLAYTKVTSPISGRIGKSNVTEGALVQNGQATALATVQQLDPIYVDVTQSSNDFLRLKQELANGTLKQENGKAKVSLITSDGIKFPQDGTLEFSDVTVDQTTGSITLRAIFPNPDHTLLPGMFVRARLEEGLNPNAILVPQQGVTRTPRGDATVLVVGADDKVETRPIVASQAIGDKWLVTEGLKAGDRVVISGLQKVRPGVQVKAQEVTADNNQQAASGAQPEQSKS
# T1 sequence (P31224 whole entry): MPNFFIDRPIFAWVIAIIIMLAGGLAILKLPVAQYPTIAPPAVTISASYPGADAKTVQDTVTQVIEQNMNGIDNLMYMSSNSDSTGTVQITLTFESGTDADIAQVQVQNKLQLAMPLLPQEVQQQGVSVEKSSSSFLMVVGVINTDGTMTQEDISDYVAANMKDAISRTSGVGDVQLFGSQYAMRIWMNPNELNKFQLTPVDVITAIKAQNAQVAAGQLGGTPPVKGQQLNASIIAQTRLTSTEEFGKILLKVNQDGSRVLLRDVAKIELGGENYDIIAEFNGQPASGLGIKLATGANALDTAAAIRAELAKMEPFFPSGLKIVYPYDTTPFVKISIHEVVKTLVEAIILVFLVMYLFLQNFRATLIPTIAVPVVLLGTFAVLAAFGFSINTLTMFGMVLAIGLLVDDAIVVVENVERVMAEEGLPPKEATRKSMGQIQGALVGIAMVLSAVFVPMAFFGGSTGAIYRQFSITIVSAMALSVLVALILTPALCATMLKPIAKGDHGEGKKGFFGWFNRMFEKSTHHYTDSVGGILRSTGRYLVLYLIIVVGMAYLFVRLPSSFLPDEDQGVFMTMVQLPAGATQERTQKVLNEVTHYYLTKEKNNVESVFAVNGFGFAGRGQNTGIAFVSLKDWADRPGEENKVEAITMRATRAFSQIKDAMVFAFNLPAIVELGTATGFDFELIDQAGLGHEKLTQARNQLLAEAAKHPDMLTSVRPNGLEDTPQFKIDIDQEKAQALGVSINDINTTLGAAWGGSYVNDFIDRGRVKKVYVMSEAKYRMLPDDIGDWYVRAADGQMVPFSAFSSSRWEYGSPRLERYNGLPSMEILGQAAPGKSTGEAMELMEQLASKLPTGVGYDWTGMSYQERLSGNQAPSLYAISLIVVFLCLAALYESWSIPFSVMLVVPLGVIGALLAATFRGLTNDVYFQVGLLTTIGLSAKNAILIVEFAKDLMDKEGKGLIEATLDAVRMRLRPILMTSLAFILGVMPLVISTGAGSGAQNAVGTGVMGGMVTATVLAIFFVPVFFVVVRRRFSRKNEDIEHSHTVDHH
# T1 sequence (P02930 23-493, further chain): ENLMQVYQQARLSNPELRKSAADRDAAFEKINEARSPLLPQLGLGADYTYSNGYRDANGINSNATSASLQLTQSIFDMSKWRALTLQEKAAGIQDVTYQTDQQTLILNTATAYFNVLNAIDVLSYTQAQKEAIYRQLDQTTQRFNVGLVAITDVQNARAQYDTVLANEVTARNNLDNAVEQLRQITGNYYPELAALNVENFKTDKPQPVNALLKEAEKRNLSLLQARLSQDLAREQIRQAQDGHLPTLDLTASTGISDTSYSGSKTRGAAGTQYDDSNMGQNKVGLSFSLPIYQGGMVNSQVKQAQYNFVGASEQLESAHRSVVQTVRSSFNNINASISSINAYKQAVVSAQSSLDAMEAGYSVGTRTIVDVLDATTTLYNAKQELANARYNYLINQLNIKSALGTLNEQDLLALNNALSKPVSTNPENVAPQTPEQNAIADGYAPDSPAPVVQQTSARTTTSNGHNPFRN
smiles,measurement,setting,value
"COc1cc(-c2csc(NC(=O)c3ccc([N+](=O)[O-])s3)n2)ccc1Cl [compound 20, N-(4-(4-chloro-3-methoxyphenyl)thiazol-2-yl)-5-nitrothiophene-2-carboxamide]",MIC,"[1]; Escherichia coli, read-out: MIC acrB",0.3 µg/mL
same,MIC ∆acrB,[1]; Table S11,0.3
same,MIC,[2],2 µg/mL
same,MIC,[3],0.3 µg/mL
same,MIC Range,[4]; 75 E.coli clinical isolates,0.6 to 10 µg/mL
same,MIC50,"[4]; Escherichia coli, 75 E.coli clinical isolates, 50% clinical isolates",5 µg/mL
same,MIC90,"[4]; Escherichia coli, 75 E.coli clinical isolates, 90% clinical isolates",10 µg/mL
same,MIC,[4]; strain SEC001,8 µg/mL
same,MIC,[4]; strain SEC002,8 µg/mL
same,MIC,[4]; strain SEC003,8 µg/mL
same,MIC,[4]; strain SEC004,8 µg/mL
same,MIC,[4]; strain SEC005,8 µg/mL
same,MIC,[4]; strain SEC006,8 µg/mL
same,MIC,[4]; strain SEC007,8 µg/mL
same,MIC,[4]; strain SEC008,8 µg/mL
same,MIC,[4]; strain SEC011,8 µg/mL
same,MIC,[4]; strain SEC012,2 µg/mL
same,MIC,[4]; strain SEC013,8 µg/mL
same,MIC,[4]; strain SEC014,8 µg/mL
same,MIC,[4]; strain SEC015,8 µg/mL
same,MIC,[4]; strain SEC016,2 µg/mL
same,MIC,[4]; strain SEC017,0.06 µg/mL
same,MIC,[4]; strain SEC018,1 µg/mL
same,MIC,[4]; strain SEC019,2 µg/mL
same,MIC,[4]; strain SEC020,8 µg/mL
same,MIC,[4]; strain SEC021,1 µg/mL
same,MIC,[4]; strain SEC022,4 µg/mL
same,MIC,[4]; strain SEC023,8 µg/mL
same,MIC,[4]; strain SEC024,8 µg/mL
same,MIC,[4]; strain SEC025,4 µg/mL
same,MIC,[4]; strain SEC026,8 µg/mL
same,MIC,[4]; strain SEC028,1 µg/mL
same,MIC,[4]; strain SEC029,2 µg/mL
same,MIC,[4]; strain SEC031,1 µg/mL
same,MIC,[4]; strain SEC032,8 µg/mL
same,MIC,[4]; strain SEC033,2 µg/mL
same,MIC,[4]; strain SEC034,8 µg/mL
same,MIC,[4]; strain SEC035,8 µg/mL
same,MIC,[4]; strain SEC036,8 µg/mL
same,MIC,[4]; strain SEC037,1 µg/mL
same,MIC,[4]; strain SEC038,0.25 µg/mL
same,MIC,[4]; strain SEC039,8 µg/mL
same,MIC,[4]; strain SEC040,2 µg/mL
same,MIC,[4]; strain SEC041,8 µg/mL
same,MIC,[4]; strain SEC042,8 µg/mL
same,MIC,[4]; strain SEC043,8 µg/mL
same,MIC,[4]; strain SEC044,8 µg/mL
same,MIC,[4]; strain SEC045,2 µg/mL
same,MIC,[4]; strain SEC046,8 µg/mL
same,MIC,[4]; strain SEC047,0.25 µg/mL
same,MIC,[4]; strain SEC048,8 µg/mL
same,MIC,[4]; strain SEC049,8 µg/mL
same,MIC,[4]; strain SEC050,8 µg/mL
same,MIC,[4]; strain SEC051,8 µg/mL
same,MIC,[4]; strain SEC052,1 µg/mL
same,MIC,[4]; strain SEC053,2 µg/mL
same,MIC,[4]; strain SEC054,2 µg/mL
same,MIC,[4]; strain SEC055,2 µg/mL
same,MIC,[4]; strain SEC057,8 µg/mL
same,MIC,[4]; strain SEC058,8 µg/mL
same,MIC,[4]; strain SEC059,2 µg/mL
same,MIC,[4]; strain SEC060,8 µg/mL
same,MIC,[4]; strain SEC061,4 µg/mL
same,MIC,[4]; strain SEC062,1 µg/mL
same,MIC,[4]; strain SEC063,2 µg/mL
same,MIC,[4]; strain SEC064,8 µg/mL
same,MIC,[4]; strain SEC065,2 µg/mL
same,MIC,[4]; strain SEC067,2 µg/mL
same,MIC,[4]; strain SEC068,8 µg/mL
same,MIC,[4]; strain SEC069,8 µg/mL
same,MIC,[4]; strain SEC070,8 µg/mL
same,MIC,[4]; strain SEC071,1 µg/mL
same,MIC,[4]; strain SEC072,4 µg/mL
same,MIC,[4]; strain SEC073,8 µg/mL
same,MIC,[4]; strain SEC074,8 µg/mL
same,MIC,[4]; strain SEC075,4 µg/mL
same,MIC,[4]; strain SEC076,4 µg/mL
same,MIC,[4]; strain SEC077,2 µg/mL
same,MIC,[4]; strain SEC078,4 µg/mL
same,MIC,[4]; strain SEC079,2 µg/mL
same,MIC,[4]; strain SEC080,4 µg/mL
same,Tefflux50,"[5]; 1µM compound, time for 50% of Nile red to be effluxed, read for 200 seconds",69.24 s
same,Tefflux50,[5]; 9µM compound,71.14 s
same,Tefflux50,[5]; 27µM compound,72.65 s
same,Tefflux50,[5]; 81µM compound,104.21 s
same,Tefflux50,[5]; 100µM compound,200 s
same,Tefflux50,[5]; 200µM compound,200 s
same,Tefflux50,[5]; 400µM compound,200 s
same,Concentration of compound required for complete inhibition of Nile red efflux (Tefflux50 >200 seconds),[5]; E. coli BW25113,100 µM
